Measurements: patent US20220395553A1, “CXCR4 ANTAGONIST PEPTIDES” (COHBAR, INC., priority 2019, published 2022)
Square brackets hold non-standard residues; d marks the D form. Peptide text beside a SMILES is read from it.

Legend:
human CXCR4 [1] = molecular target: T1, human CXCR4 (Homo sapiens, UniProt P61073); assay: CXCR4/CXCL12 binding, HTRF format, single concentration (Example 23); set-up: host or cells: HEK293 (Tag-lite CXCR4 cells, frozen aliquots, transient expression); conditions: 15 nM CXCR4R fluorescent probe, 3 hours, HEK293 Tag-lite CXCR4 cells
In short: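 Tag-lite CXCR4 cells were exposed to peptide at 400 nM final with 15 nM (EC80) fluorescent CXCR4 probe for 3 h at room temperature. HTRF was read, and the 665/620 nm ratio ×10,000 measured probe bound to terbium-labelled receptor.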

Jurkat cells = assay: CXCL12 mediated cell migration, Jurkat cells; type: cell-based, human; conditions: 1.1 μM test article, 100 ng/ml CXCL12, 1 hour
Description: The assay was performed following a protocol similar to that described by Peng, et al., Mol Cancer Ther., 14480-90 (2015), incorporated herein by reference. Peptides were initially prepared as 1 mM stock in H2O and tested at a final concentration of 1.1 μM. […] Jurkat cells were resuspended in serum free media (RPMI+GlutaMax; Gibco/Thermo Fisher Scientific; Gaithersburg, Md.) containing 0.5% bovine serum albumin at density of 5×10^6 cells/ml. […] Cells (250,000 cells in 50 μl) supplemented with the appropriate treatments were seeded on to the upper chamber of a 96-well 5 μm HTS Transwell filter insert (Corning/Costar; Tewksbury, Mass.). […] Filter inserts were immediately placed on top of 96-well receiver trays and placed at 37° C. in a humidified atmosphere of 5% CO2/95% air for 1 hour. Following the 1 hour incubation period the filter inserts were carefully removed and the migration of cells across the filter into the bottom chamber (receiver wells) was determined by measuring ATP levels using Cell TiterGlo 2.0, according to manufacturer's instructions (Promega; Madison, Wis.); luminescence was measured using a Cytation 3 plate reader (BioTek; Winooski, Vt.).

[2] = tested on: CXCR4/CXCL12 induced p-MEK; assay: CXCR4/CXCL12 induced p-MEK in Jurkat cells (ELISA); type: cell-based, human; conditions: 5 nM CXCL12, 5 min
Description: The assay was performed following a protocol similar to that described by Peng, et al., Mol Cancer Ther., 14 480-90 (2015), incorporated herein by reference. […] Jurkat cells were resuspended in standard growth media (RPMI+GlutaMax media; Gibco/Thermo Fisher Scientific; Gaithersburg, Md.) containing 10% FBS and 1% penicillin/streptomycin. Assays were performed using fresh or conditioned media (media cultured overnight in presence of Jurkat cells) to resuspend cells at density of 2×10^6 cells/ml and […] of cell suspension was immediately placed in 1.7 ml microfuge tubes. […] Following the 5 min incubation, cells were centrifuged at 1000×g for 4 min at 4° C. The supernatant was removed and the cells were rinsed with 1 ml of HBSS containing calcium and magnesium. The HBSS was removed and the cells were immediately lysed in 150 l of lysis buffer included with Phospho-MEK1 (Ser217/221) Sandwich ELISA kit (Cell Signaling Technology; Danvers, Mass.); lysis buffer was supplemented with 1 m M PMSF (Millipore-Sigma; Saint Louis, Mo.) and Halt protease/phosphatase inhibitor cocktail (Thermo-Fisher; Waltham, Mass.) prior to use. The samples were then placed on ice for 10 min and vortexed periodically. Following the lysis step, the samples were centrifuged at 12,500 rpm for 10 min at 4° C. p-MEK expression in each of the samples was then measure using Phospho-MEK1 (Ser217/221) Sandwich ELISA kit according to manufacturer's instructions. Absorbance was measured using a Cytation 3 plate reader at […] (BioTek; Winooski, Vt.).

human CXCR4 [3] = molecular target: T1, human CXCR4; assay: IC50 for inhibition of CXCR4 activation, β-Arrestin recruitment (Example 22); type: cell-based; set-up: host or cells: C2C12 (mouse myoblast) CXCR4 β-Arrestin PathHunter cell line
In short: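 C2C12 cells co-expressing ProLink-tagged human CXCR4 and Enzyme Acceptor-tagged β-arrestin (PathHunter). Peptides tested in 10-point, 3-fold dilutions from 1 μM (1 μM–0.05 nM). Recruitment read by chemiluminescent enzyme-fragment complementation after 90 min incubation.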

T1 sequence (P61073 whole entry): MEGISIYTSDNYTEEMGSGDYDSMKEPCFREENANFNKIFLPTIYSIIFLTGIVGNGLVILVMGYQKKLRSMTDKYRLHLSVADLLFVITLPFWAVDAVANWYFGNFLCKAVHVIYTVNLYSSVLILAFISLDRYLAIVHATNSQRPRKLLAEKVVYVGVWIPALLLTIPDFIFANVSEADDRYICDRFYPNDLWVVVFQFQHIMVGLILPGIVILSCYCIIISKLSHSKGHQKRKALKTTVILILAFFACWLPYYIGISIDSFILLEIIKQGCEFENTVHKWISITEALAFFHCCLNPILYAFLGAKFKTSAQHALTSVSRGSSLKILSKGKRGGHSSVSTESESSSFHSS

Compound | Percent Inhibition of CXCR4/CXCL12 Binding (400 nM peptide) (human CXCR4 [1]) [%] | IC50 (human CXCR4 [3]) [nM] | Percent Inhibition of CXCL12 Mediated Migration (1.1 μM Test Article) (Jurkat cells) [%] | Percent Inhibition of CXCR4/CXCL12 Induced p-MEK (100 nM Test Article) [2] [%] | Percent Inhibition of CXCR4/CXCL12 Induced p-MEK (1 μM Test Article) [2] [%]
CC(C)C[C@H](NC(=O)[C@H](CO)NC(=O)[C@H](CO)NC(=O)[C@H](CCCNC(=N)N)NC(=O)[C@@H](C)NC(=O)[C@H](CO)NC(=O)[C@H](Cc1c[nH]cn1)NC(=O)[C@H](Cc1c[nH]cn1)NC(=O)[C@H](Cc1ccc(O)cc1)NC(=O)[C@H](CCCNC(=N)N)NC(=O)[C@H](CCC(=O)O)NC(=O)[C@@H](N)CC(C)C)C(=O)N[C@@H](CCCNC(=N)N)C(=O)N1CCC[C@H]1C(=O)N[C@@H](Cc1ccccc1)C(=O)N[C@H](C(=O)N[C@@H](CCCCN)C(=O)O)[C@@H](C)O [compound 61] (H-LERYHHS[dA]RSSLRPFTK-OH; N-terminus and C-terminus assumed) | 54 | 8 | – | 15 | 46
CC(C)C[C@H](NC(=O)[C@@H](NC(=O)[C@H](CO)NC(=O)[C@H](CCCNC(=N)N)NC(=O)[C@@H](NC(=O)[C@H](CO)NC(=O)[C@H](Cc1c[nH]cn1)NC(=O)[C@H](Cc1c[nH]cn1)NC(=O)[C@H](Cc1ccc(O)cc1)NC(=O)[C@H](CCCNC(=N)N)NC(=O)[C@H](CCCNC(=N)N)NC(=O)[C@@H](N)CC(C)C)C(C)C)[C@@H](C)O)C(=O)N[C@@H](CCCNC(=N)N)C(=O)N1CCC[C@H]1C(=O)N[C@@H](Cc1ccc(O)cc1)C(=O)N[C@H](C(=O)N[C@@H](CCCCN)C(=O)O)[C@@H](C)O [compound 71] (H-LRRYHHSVRSTLRPYTK-OH; N-terminus and C-terminus assumed) | 29 | 3 | – | 56 | 94
CC(C)C[C@H](NC(=O)[C@H](CO)NC(=O)[C@H](CO)NC(=O)[C@H](CCCNC(=N)N)NC(=O)[C@@H](NC(=O)[C@H](CO)NC(=O)[C@H](Cc1c[nH]cn1)NC(=O)[C@H](Cc1c[nH]cn1)NC(=O)[C@H](Cc1ccc(O)cc1)NC(=O)[C@H](CCCNC(=N)N)NC(=O)[C@H](CCCNC(=N)N)NC(=O)[C@@H](N)CC(C)C)C(C)C)C(=O)N[C@@H](CCCNC(=N)N)C(=O)N1CCC[C@H]1C(=O)N[C@@H](Cc1ccc(O)cc1)C(=O)N[C@@H](CO)C(=O)N[C@@H](CCCCN)C(=O)O [compound 72] (H-LRRYHHSVRSSLRPYSK-OH; N-terminus and C-terminus assumed) | 6 | 5 | – | 8 | 86
CC(C)C[C@H](NC(=O)[C@@H](NC(=O)[C@H](CO)NC(=O)[C@H](CCCNC(=N)N)NC(=O)[C@@H](C)NC(=O)[C@H](CO)NC(=O)[C@H](Cc1c[nH]cn1)NC(=O)[C@H](Cc1c[nH]cn1)NC(=O)[C@H](Cc1ccc(O)cc1)NC(=O)[C@H](CCCNC(=N)N)NC(=O)[C@H](CCC(=O)O)NC(=O)[C@@H](N)CC(C)C)[C@@H](C)O)C(=O)N[C@@H](CCCNC(=N)N)C(=O)N1CCC[C@H]1C(=O)N[C@@H](Cc1ccc(O)cc1)C(=O)N[C@H](C(=O)N[C@@H](CCCCN)C(=O)O)[C@@H](C)O [compound 77] (H-LERYHHS[dA]RSTLRPYTK-OH; N-terminus and C-terminus assumed) | 77 | 4 | – | 7 | 68

Now from value to compound, other results behind:

Percent Inhibition of CXCR4/CXCL12 Binding (400 nM peptide) (human CXCR4 [1]) [%] | IC50 (human CXCR4 [3]) [nM] | Compound | Percent Inhibition of CXCL12 Mediated Migration (1.1 μM Test Article) (Jurkat cells) [%] | Percent Inhibition of CXCR4/CXCL12 Induced p-MEK (100 nM Test Article) [2] [%] | Percent Inhibition of CXCR4/CXCL12 Induced p-MEK (1 μM Test Article) [2] [%]
57 | – | CC(C)C[C@H](NC(=O)[C@H](CO)NC(=O)[C@H](CO)NC(=O)[C@H](CCCNC(=N)N)NC(=O)[C@@H](NC(=O)[C@H](CO)NC(=O)[C@H](Cc1c[nH]cn1)NC(=O)[C@H](Cc1c[nH]cn1)NC(=O)[C@H](Cc1ccc(O)cc1)NC(=O)[C@H](CCCNC(=N)N)NC(=O)[C@H](CCC(=O)O)NC(=O)[C@@H](N)CC(C)C)C(C)C)C(=O)N[C@@H](CCCNC(=N)N)C(=O)N1CCC[C@H]1C(=O)N[C@@H](Cc1ccc(O)cc1)C(=O)N[C@H](C(=O)O)[C@@H](C)O [compound 18] (H-LERYHHSVRSSLRPYT-OH; N-terminus and C-terminus assumed) | 66 | 45 | 78
3 | 14 | CC(C)C[C@H](NC(=O)[C@H](CO)NC(=O)[C@H](CO)NC(=O)[C@H](CCCNC(=N)N)NC(=O)[C@@H](NC(=O)[C@H](CO)NC(=O)[C@H](Cc1c[nH]cn1)NC(=O)[C@H](Cc1c[nH]cn1)NC(=O)[C@H](Cc1ccc(O)cc1)NC(=O)[C@H](CCCNC(=N)N)NC(=O)[C@H](CCCNC(=N)N)NC(=O)[C@@H](N)CC(C)C)C(C)C)C(=O)N[C@@H](CC(=O)O)C(=O)N1CCC[C@H]1C(=O)N[C@@H](Cc1ccc(O)cc1)C(=O)N[C@H](C(=O)N[C@@H](CCCCN)C(=O)O)[C@@H](C)O [compound 67] (H-LRRYHHSVRSSLDPYTK-OH; N-terminus and C-terminus assumed) | – | −8 | 42
75 | 6 | CC(C)C[C@H](NC(=O)[C@H](CO)NC(=O)[C@@H](NC(=O)[C@H](CCCNC(=N)N)NC(=O)[C@@H](C)NC(=O)[C@H](CO)NC(=O)[C@H](Cc1c[nH]cn1)NC(=O)[C@H](Cc1c[nH]cn1)NC(=O)[C@H](Cc1ccc(O)cc1)NC(=O)[C@H](CCCNC(=N)N)NC(=O)[C@H](CCC(=O)O)NC(=O)[C@@H](N)CC(C)C)[C@@H](C)O)C(=O)N[C@@H](CCCNC(=N)N)C(=O)N1CCC[C@H]1C(=O)N[C@@H](Cc1ccc(O)cc1)C(=O)N[C@H](C(=O)N[C@@H](CCCCN)C(=O)O)[C@@H](C)O [compound 76] (H-LERYHHS[dA]RTSLRPYTK-OH; N-terminus and C-terminus assumed) | – | 5 | 44
81 | 3 | CC(C)C[C@H](NC(=O)[C@H](CO)NC(=O)[C@H](CO)NC(=O)[C@H](CCCNC(=N)N)NC(=O)[C@@H](C)NC(=O)[C@H](CO)NC(=O)[C@H](Cc1c[nH]cn1)NC(=O)[C@H](Cc1c[nH]cn1)NC(=O)[C@H](Cc1ccc(O)cc1)NC(=O)[C@H](CCCNC(=N)N)NC(=O)[C@H](CCC(=O)O)NC(=O)[C@@H](N)CC(C)C)C(=O)N[C@@H](CCCNC(=N)N)C(=O)NCC(=O)N[C@@H](Cc1ccc(O)cc1)C(=O)N[C@H](C(=O)N[C@@H](CCCCN)C(=O)O)[C@@H](C)O [compound 81] (H-LERYHHS[dA]RSSLRGYTK-OH; N-terminus and C-terminus assumed) | – | −16 | 20
